Values quoted from earlier work as cited in patent US8021854B2, “Method of treating vascular disease” (priority 2007, dated 2011).
Like-named read-outs stand apart in the source and are kept apart here.

What was measured:
[1] = system: patients with myeloproliferative disorders; details: 577 patients
[2] = system: patients with and without significant cardiovascular history
[3] = in vivo
[4] = system: patients with essential thrombocythemia at high risk for vascular events; details: versus hydroxyurea group
[5] = system: platelets of patients with essential thrombocythaemia; details: during therapy
[6] = system: patients with thrombocythemic states; details: 942 patients
vaso-occlusive disease = details: low doses of aspirin

O=C1CN2Cc3c(ccc(Cl)c3Cl)N=C2N1 [anagrelide]
study population that discontinued therapy due to adverse events ([1]; mean treatment duration 65 weeks): Sixteen | discontinuation of therapy due to cardiovascular adverse events ([1]; 23 patients): 4% | palpitations and tachycardia (patients) ([1]; 209 patients): 36% | patients who died from cardiovascular adverse events ([1]; four had preexisting coronary artery disease): Seven | congestive heart failure (patients) ([1]; fourteen patients): 2.4% | severity of cardiovascular events (palpitations, edema, tachycardia) ([2]; 492 patients): generally mild and did not increase cardiovascular disease morbidity | patients experiencing cardiovascular adverse events ([2]; patients with history of cardiac disease, 22 of 90): 24% | patients experiencing cardiovascular adverse events ([2]; patients without history of cardiac disease, 30 of 402, p=0.0001): 7% | adverse reaction: chest pain [3]: 8% | adverse reaction: peripheral edema [3]: 9% | adverse reaction: tachycardia [3]: 8% | withdrawal from assigned treatment ([4]; P<0.001): more likely to withdraw | odds ratio of reaching the primary end point ([4]; median follow-up 39 months, 95 percent CI 1.04 to 2.37, P=0.03): 1.57 | functional or chemical platelet abnormalities [5]: no functional or chemical abnormality was improved | platelet count [5]: corrected | platelet volume [5]: constantly increased | deaths [6]: 50 | deaths from cardiac causes [6]: 15 | fluid retention [6]: 22% | palpitations [6]: 26% | patients who discontinued the agent due to adverse events [6]: Thirteen

CC(=O)Oc1ccccc1C(=O)O [aspirin, Acetyl salicylic acid]
incidence of major haemorrhage (vaso-occlusive disease): less than 1% | morbidity and mortality reductions (vaso-occlusive disease; vaso-occlusive disease, Physician's Health Study): 45%
